# Source: patent US20100166737A1, “P38Alpha as a Therapeutic Target in Bladder Carcinoma” (INSTITUT CURIE, priority 2007, published 2010)
# What was measured:
# [1] = system: FGFR3-S249C-expressing cells (S249C1.2); assay: Soft agar assay of FGFR3-S249C-expressing NIH-3T3 cells; format: cell-based; conditions: 21 days, colonies greater than 50 μm; FIG. 1D
# Procedure: (§1) For NIH-3T3, 30,000 transfected cells were added, in triplicate, to each well of a 12-well plate containing DMEM supplemented with 10% NCS and solidified with agar. For MGH-U3, 20,000 non-transfected or siRNA-transfected cells were added, to triplicate wells of 12-well plates containing MEM supplemented with 10% FCS and agar. When necessary, both cell types were cultured in the presence or absence of different inhibitors in agar and in culture medium. The same amount of inhibitor was added to the culture medium weekly.
# (§2) The plates were incubated for 21 or 14 days for NIH-3T3 and MGH-U3 cells respectively, and colonies with diameters greater than 50 μm were then scored as positive, using a phase-contrast microscope equipped with a measuring grid.
# [2] = system: NIH-3T3 cell line transfected by mutated FGFR3-S249C; conditions: AACR abstract April 2005; cited from earlier work
# [3] = system: control mice basal epidermal cells; assay: BrdU labelling, basal epidermal cell proliferation in control littermate mice; format: in vivo; conditions: 100 μM SB203580 on snout daily during 2 weeks, FIG. 3D
# Procedure: (§3) Transgenic mice (K5-FGFR3-S249C) expressing mutated receptor FGFR3b— S249C in basal cells of the epidermis were established previously (Logi& et al 2005, Hum. Mol. Genet. 14, 1153-1160). 40 μl of 100 μM SU5402 or of 100 μM SB203580 or of vehicule (acetone) were applied daily during 2 weeks on snout of 3 to 4 months old transgenic mice who had developed epidermal tumours on snout or of control littermates mice. Two hours prior sacrifice mice were injected (i.p), with 0.25 mg/g body weight Brdu (Sigma, Saint-Quentin Falavier, France). Brdu immunohistochemistry was performed on parafine embed snout tissue with BrdU in situ detection kit (BD Pharmingen, San Diego, Calif., USA) according to the manufacturer's instructions. The number of BrdU-labeled cells among 500 cells from basal epidermis layer was determined for each mouse. Total snout cells lysate (75 μg) were analyzed as described above using antibodies against p38 and phospho-p38 (Pp38).
# [4] = system: NIH-3T3 cell line transfected by mutated FGFR3-S249C; conditions: AACR abstract April 2005; cited from earlier work; remark: listed apart in the source
# [5] = system: FGFR3-S249C-expressing NIH-3T3 cells (clone S249C1.2); assay: Morphology analysis of FGFR3-S249C-expressing NIH-3T3 cells; format: cell-based; conditions: 30 μM, 48 h; FIG. 1C
# Procedure: (§4) NIH-3T3 cells were cultured 48 h in presence of different inhibitors, SB203580 and SU5402 (Calbiochem, Merck Eurolab, Fontenay Sous Bois, France), and pictures were taken using a phase-contrast microscope.
# MGH-U3 xenograft = MGH-U3 xenograft growth in athymic nude mice; format: in vivo; conditions: intratumoral, daily, 100 μl of 20 μM, up to 25 days; FIG. 2D
# Procedure: Ten six-week-old female Swiss nu/nu mice were raised in the animal facilities of the Curie Institute in specified pathogen-free conditions. Their care and housing were in accordance with the institutional guidelines of the French National Ethics Committee (Ministere de l'Agriculture et de la Forêt, Direction de la Santë et de la Protection Animate, Paris, France) and were supervised by authorised investigators. Each mouse was injected subcutaneously in each flank (dorsal region) with 4×10^6 cells/site. When tumours reached 50 mm^3 (+/−10), mice were randomly separated into two group of 5 mice. 100 μl of 20 μM SB203580 or equal volume of PBS were administrated daily in tumours. Tumour formation was monitored for up to 25 days and the size of tumours was measured with Vernier calipers: two perpendicular diameters were used to estimate tumour volumes by the formule ab^2/2, where a is the largest and b the smallest diameter.
# NIH-3T3 control cells = assay: Morphology analysis of NIH-3T3 control cells; format: cell-based; conditions: data not shown
# Procedure: as §4
# MGH-U3 cells = assay: Soft agar assay, anchorage-independent growth of MGH-U3 cells; format: cell-based, human; conditions: 14 days; FIG. 2C
# Procedure: as §1, §2
# [6] = system: transgenic mice tumor cell proliferation; assay: BrdU labelling, snout tumour cell proliferation in K5-FGFR3-S249C transgenic mice; format: in vivo; conditions: 100 μM SB203580 on snout daily during 2 weeks; FIG. 3D
# Procedure: as §3
# [7] = system: p38 phosphorylation in MGH-U3 cells; assay: Immunoblot of p38 phosphorylation in MGH-U3 cells; format: cell-based, human; conditions: 30 μM SU5402, 24 hours; FIG. 2A
# Procedure: (§5) Transfected NIH-3T3 cells were washed once with PBS and serum-starved for 24 h. Where required, cells were stimulated for 5 min with 20 ng/ml FGF1 in the presence of 50 μg/ml heparin at 37° C. They were then lysed in lysis buffer (50 mM Tris-HCl (pH 7.4), 150 mM NaCl, 1% NP-40, 0.25% sodium deoxycholate, 1 mM EDTA, 1 mM Na3VO4, 5 mM NaF, 1 μ/ml aprotinin, 1 μg/ml leupeptin and 1 μg/ml pepstatin) and the lysates were clarified by centrifugation. The protein concentrations of the supernatants were determined with the Biorad Bradford Protein Assay Kit (BioRad, Ivry sur Seine, France). Proteins from total cell lysates (75 μg protein) were resolved by SDS-PAGE on 10% polyacrylamide gels, electrotransferred to Immobilon-P membrane in 25 mM Tris, pH 8.3, 200 mM glycine, 10% ethanol and analyzed using antibodies against p38 (#9212), Aid (#9272), p42/p44 (#9102) and the phosphorylated forms of these proteins (phospho AKT (Thr308) #9275; phospho p42/p44 (thr202/tyr204) # 9101; phospho p38 (thr180/tyr182) (cell signaling Technology, Ozyme, Montigny le Bretonneux, France)
# MGH-U3 total cell lysates (75 μg) were analyzed similarly using antibodies against p38, phospho-p38 and Akt.
# [8] = system: p38 phosphorylation in FGFR3-S249C expressing NIH-3T3 clones; assay: Immunoblot of p38 phosphorylation in FGFR3-S249C expressing NIH-3T3 clones; format: cell-based; conditions: 30 μM SU5402, 24 hours; clones S249C1.1 and S249C1.2; FIG. 1B
# Procedure: as §5
# [9] = system: p38 phosphorylation in transgenic mice snout; assay: Immunoblot of p38 phosphorylation in snout of K5-FGFR3-S249C transgenic mice; format: in vivo; conditions: 100 μM SU5402 on snout daily during 2 weeks; FIG. 3C
# Procedure: as §3
Compound,ability to form colonies in a soft agar assay [1],transformed phenotype of the cells [2],basal epidermal cells proliferation (BrdU labelling) [3],abilities to form colonies in soft agar [4],transformed phenotype (morphology) [5],MGH-U3 xenograft growth (MGH-U3 xenograft),effect on the control cell phenotype (NIH-3T3 control cells),colonies on soft agar relative to control cells (MGH-U3 cells),tumor cell proliferation (BrdU labelling) [6],p38 phosphorylation [7],p38 phosphorylation [8],p38 phosphorylation [9]
C[S+]([O-])c1ccc(-c2nc(-c3ccncc3)c(-c3ccc(F)cc3)[nH]2)cc1 (stereo not drawn) [SB203580],inhibited,inhibits,no effect,inhibits,reverted,significantly reduced,no effect,one third,significant decreased,–,–,–
Cc1c[nH]c(/C=C2\C(=O)Nc3ccccc32)c1CCC(=O)O [SU5402],inhibited,–,–,–,reverted,–,no effect,–,–,suppressed,inhibited,decreased
